Data published in patent US20050059645A1, “Methods for the treatment of male and female sexual dysfunction” (priority 2003, published 2005).

What was measured:
[1] = test system: testosterone; experiment: Phase I repeated buccal dosing in postmenopausal women: serum testosterone; format: in vivo, human; details: for testosterone level exceeding baseline: 72 hours after last dose
Experimental: Even more recently, in a Phase I clinical study of postmenopausal women, two different administration regimens of a 2.86 mg E2-CDS buccal delivery tablet were evaluated for safety and effects on hormone levels. The subjects were 12 healthy postmenopausal volunteers, divided into two groups of six. In Group A, women were dosed once daily for 10 days (10 doses); in Group B, women were dosed once every other day for 13 days (7 doses).

[2] = test system: castrated male rats; experiment: Male rat copulatory behavior after orchidectomy; format: in vivo
Experimental: Adult male Sprague Dawley rats (300-400 g) from Charles River Hungary Ltd., Godollo, Hungary, were used. Animals were kept in community cages (4 animals/cage) in a climate-controlled room (23±2° C.), with a 14 hour light, 10 hour dark cycle of artificial lighting, using reversed light/dark cycle. […] These hormones were dissolved in sunflower oil.
After establishment of basal behaviors as discussed below, selected animals were orchidectomized via a single midventral incision and were rehoused.
After repeated testing of animals recovered from orchidectomy as discussed below, rats were divided into four groups and treated intravenously, via a single tail vein injection, with one of the following: group 1: control (27% hydroxypropyl-β-cyclodextrin); group 2: 0.03 mg/kg E2-CDS; group 3: 0.3 mg/kg E2-CDS; and group 4: 3 mg/kg E2-CDS.
Mating was observed during the dark cycle in a plexi observation cage in a room where only a dim red light was on. The male was placed in the observation cage 5 minutes prior to the female.
The following parameters were then measured: • Mount latency (ML): the time from the introduction of the female to the initial mount or intromission; • Intromission latency (IL): the time from introduction of the female to the first intromission; and • Ejaculatory latency (EL): the time from the first intromission to ejaculation.
Sessions were considered negative if IL exceeded 15 minutes.
To establish basal behavior, each male was tested every 5 days until four successive and consistent behavioral patterns were achieved. This pretesting lasted for about four weeks. Approximately half of the animals tested were deemed suitable for orchidectomy.
Twenty-eight days after healing from orchidectomy, the animals were tested again (Day 0) and divided into 4 experimental groups. Only animals displaying ejaculation latencies greater than 15 minutes were included in the study.
Tests of male sexual behavior were conducted 3, 7, 14, 21, 28, 35 and 42 days after drug administration or until the effect disappeared, i.e. until no statistically significant difference was found between groups during two consecutive tests.
Behavioral patterns and related times were recorded manually by skilled observers.
(§1) Four weeks following orchidectomy, groups of rats were treated with one of the following drug doses via tail vein injection: E2-CDS 0.03, 0.3, and 3 mg/kg. Blood samples were collected by orbital sinus puncture under light ether anesthesia. The samples were stored at 4° C. for one hour and centrifuged at 1,000 g for 10 minutes. Plasma was separated and stored at −80° C. until assayed. Plasma LH concentrations from individual samples were measured by double antibody radioimmunoassay kits obtained from Amersham Pharmacia Biotech, Rome, Italy. […] The limit of detection was 15 pg/ml.
(§2) Behavioral changes were analyzed using the Mann-Whitney U test (Siegel, Nonparametric Statistics for the Behavioral Sciences, New York; McGraw-Hill Book Company, Inc., 1956). The Fisher exact test was used for percentage comparisons (Zar, Biostatistical Analysis, Prentice Hall, Inc., Englewood Cliffs, N.J., 1974). Serum LH data were analyzed for each time and treatment group by analysis of variance (ANOVA) followed by Bonferroni posthoc test.
The testing described above was repeated using a dose of 0.03 mg/kg administered as a single i.v. injection, and a dose of 0.01 mg/kg with daily i.v. administration for 10 days. E2-CDS stock solution (40%) was diluted in 27% HPβCD solution.
The copulatory behavior of E2-CDS treated groups was compared to that of the HPβCD control group at 1, 3, 7, 14, and 21 days after i.v. drug administration in the 0.03 mg/kg group and at 1, 3, 7, 14 and 21 days after initial i.v. drug administration in the 0.01 mg/kg×10 days group.

[3] = test system: LH; experiment: Plasma LH by radioimmunoassay in orchidectomized male rats; format: in vivo, rat; details: for plasma LH level: repeated examination
Experimental: as §1, §2

[4] = 3.0 mg/kg single i.v., days 14, 21 and 28

Structure (SMILES): CN1C=CCC(C(=O)O[C@H]2CC[C@H]3[C@@H]4CCc5cc(O)ccc5[C@H]4CC[C@]23C)=C1 [E2-CDS, 17β-[(1-methyl-1,4-dihydro-3-pyridinyl)carbonyloxy]estra-1,3,5(10)-trien-3-ol]
- testosterone level exceeding baseline ([1]; Group A): 14%
- testosterone level exceeding baseline ([1]; Group B): 28%
- time to reach minimum testosterone level ([1]; day 1, Group A): 6.5 ± 11.7 h
- mean testosterone AUC24 lower than baseline AUC24 ([1]; day 1, Group B): 23.0%
- time to reach minimum testosterone level ([1]; day 1, Group B): 7.3 ± 11.3 h
- effect on copulatory behavior ([2]; 0.03 mg/kg single i.v., first study): no statistically significant effect
- sexual activity ([2]; 0.03 mg/kg single i.v., repeated study): improved sexual activity, but it was not statistically significant in any observations
- mount frequency ([2]; 0.3 mg/kg single i.v.): significantly increased on day 7
- mount latency ([2]; 0.3 mg/kg single i.v.): sharply reduced from day 7 through day 28
- intromission performance ([2]; 3.0 mg/kg single i.v.): improved in a statistically significant manner from day 14 through day 28
- mount latency ([2]; 3.0 mg/kg single i.v.): sharply reduced from day 7 through day 28
- intromission frequency [2, 4]: statistically significant increase in intromission frequency
- intromission latency [2, 4]: decrease in intromission latency
- effect on re-establishment of copulatory behavior ([2]; 0.3 and 3.0 mg/kg single i.v.): significant at doses of 0.3 and 3.0 mg/kg through day 28
- plasma LH level ([3]; 0.01 mg/kg i.v., 10 daily injections): significantly reduced at the dose of 0.01 mg/kg (10 daily injections) from day 3 to day 14
- plasma LH level ([3]; 0.03 mg/kg single injection): significantly reduced on day 3 only
- plasma LH levels ([3]; 0.3 mg/kg single i.v.): significantly reduced the LH levels on days 1, 3, and 7
- plasma LH levels ([3]; 3 mg/kg single i.v.): suppressed significantly throughout 28 days
